{"source": "patent US20080058309A1", "about": "“Novel Compounds 171” (ASTRAZENECA AB, priority 2006, published 2008)", "note": "Counter-ions that a name gives are not always drawn.", "data": [{"system": "not given", "experiment": "not given", "settings": "not given", "values": [{"smiles": "O=C(CNc1ccccc1)Nc1c(Cl)ccc2nc(N3CC[C@@H](O)C3)ccc12", "melting point": "230 to 232 °C"}, {"smiles": "O=C(CNc1ccc(F)cc1)Nc1c(Cl)ccc2nc(N3CC[C@@H](O)C3)ccc12", "melting point": "242 to 246 °C"}, {"smiles": "O=C(CNc1ccc(F)c(F)c1)Nc1c(Cl)ccc2nc(N3CC[C@@H](O)C3)ccc12", "melting point": "238 to 240 °C"}, {"smiles": "CC(O)C(O)c1ccc2c(NC(=O)CNc3ccc(F)cc3)c(Cl)ccc2n1", "note": "(stereo not shown)", "melting point": "135 to 138 °C"}, {"smiles": "O=C(CNc1ccccc1Cl)Nc1c(Cl)ccc2nc(N3CC[C@@H](O)C3)ccc12", "melting point": "215 to 219 °C"}, {"smiles": "O=C(COc1ccccc1)Nc1c(Cl)ccc2nc(N3CC[C@@H](O)C3)ccc12", "melting point": "233 to 235 °C"}, {"smiles": "N#Cc1ccc(NCC(=O)Nc2c(Cl)ccc3nc(N4CC[C@@H](O)C4)ccc23)cc1", "melting point": "230 to 233 °C"}, {"smiles": "O=C(CNc1cccc(F)c1)Nc1c(Cl)ccc2nc(N3CC[C@@H](O)C3)ccc12", "melting point": "218 to 220 °C"}, {"smiles": "O=C(CNc1cccc(Cl)c1)Nc1c(Cl)ccc2nc(N3CC[C@@H](O)C3)ccc12", "note": "(as salt: hydrochloride)", "melting point": "180 °C (dec.)"}, {"smiles": "O=C(CNc1ccc(Cl)cc1)Nc1c(Cl)ccc2nc(N3CC[C@@H](O)C3)ccc12", "note": "(as salt: hydrochloride)", "melting point": "175 °C (dec.)"}, {"smiles": "O=C(CSc1ccccc1)Nc1c(Cl)ccc2nc(N3CC[C@@H](O)C3)ccc12", "note": "[Example 6, N-[6-Chloro-2-[(3R)-3-hydroxy-1-pyrrolidinyl]-5-quinolinyl]-2-(phenylthio)-acetamide]", "melting point": "246 to 249 °C"}]}, {"biological_target": "T1, P2X7 receptor (Homo sapiens, UniProt Q99572)", "T1 construct": "200 μl of a suspension of THP-1 cells; endogenous in cells; host or cells: THP-1 cells", "T1 sequence (Q99572 1-595)": "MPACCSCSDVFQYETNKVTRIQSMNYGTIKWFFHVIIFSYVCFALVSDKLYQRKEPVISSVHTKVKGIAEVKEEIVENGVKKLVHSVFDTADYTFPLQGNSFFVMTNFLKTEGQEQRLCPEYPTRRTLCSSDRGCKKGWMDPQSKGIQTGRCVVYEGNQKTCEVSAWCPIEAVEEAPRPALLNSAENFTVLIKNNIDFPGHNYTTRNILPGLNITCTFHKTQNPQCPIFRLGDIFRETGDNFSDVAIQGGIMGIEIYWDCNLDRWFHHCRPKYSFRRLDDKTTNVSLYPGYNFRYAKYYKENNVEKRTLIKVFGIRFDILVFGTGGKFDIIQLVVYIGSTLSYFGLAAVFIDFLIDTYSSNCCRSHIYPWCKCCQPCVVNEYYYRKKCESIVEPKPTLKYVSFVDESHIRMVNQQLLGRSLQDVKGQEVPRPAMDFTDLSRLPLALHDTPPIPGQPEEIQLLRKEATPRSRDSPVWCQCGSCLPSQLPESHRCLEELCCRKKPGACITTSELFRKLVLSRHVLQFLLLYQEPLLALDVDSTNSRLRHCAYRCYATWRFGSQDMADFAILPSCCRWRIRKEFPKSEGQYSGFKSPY", "experiment": "P2X7 receptor antagonist test: bbATP-induced ethidium bromide fluorescence in THP-1 cells", "type": "cell-based", "settings": "negative logarithm of concentration reducing bbATP agonist activity by 50%, 10^-5M bbATP, 37° C. one hour", "text": "Certain compounds such as benzoylbenzoyl adenosine triphosphate (bbATP) are known to be agonists of the P2X7 receptor, effecting the formation of pores in the plasma membrane (Drug Development Research (1996), 37(3), p. 126). Consequently, when the receptor is activated using bbATP in the presence of ethidium bromide (a fluorescent DNA probe), an increase in the fluorescence of intracellular DNA-bound ethidium bromide is observed. The increase in fluorescence can be used as a measure of P2X7 receptor activation and therefore to quantify the effect of a compound on the P2X7 receptor.\nIn this manner, each of the title compounds of the Examples was tested for antagonist activity at the P2X7 receptor. Thus, the test was performed in 96-well flat bottomed microtitre plates, the wells being filled with 250 μl of test solution comprising 200 μl of a suspension of THP-1 cells (2.5×10^6 cells/ml) containing 10^−4M ethidium bromide, 25 μl of a high potassium buffer solution containing 10^−5M bbATP, and 25 μl of the high potassium buffer solution containing concentrations of test compound typically from 30 μM-0.001 μM. The plate was covered with a plastics sheet and incubated at 37° C. for one hour. The plate was then read in a Perkin-Elmer fluorescent plate reader, excitation 520 nm, emission 595 nm, slit widths: Ex 15 nm, Em 20 nm. […]", "units": {"IC50": "µM"}, "values": [{"smiles": "O=C(CSc1ccccc1)Nc1c(Cl)ccc2nc(N3CC[C@@H](O)C3)ccc12", "note": "[Example 6, N-[6-Chloro-2-[(3R)-3-hydroxy-1-pyrrolidinyl]-5-quinolinyl]-2-(phenylthio)-acetamide]", "IC50": 0.398}, {"smiles": "N#Cc1cccc(NCC(=O)Nc2c(Cl)ccc3nc(N4CC[C@@H](O)C4)ccc23)c1", "note": "[Example 7, N-[6-Chloro-2-[(3R)-3-hydroxy-1-pyrrolidinyl]-5-quinolinyl]-2-[(3-cyanophenyl)amino]-acetamide]", "IC50": 0.0794}]}]}
